Consider one compound from patent US20150050210A1 (priority 2012, published 2015).

Read-outs that look alike come from different tables or passages of the source.

Data set [1] is described as follows: Compatibility studies of bendamustine with excipients (1:1 binary mixtures). It counts as physicochemical. Particulars: for Total impurities %: open container, one month. As for the experimental part: Compatibility studies of bendamustine with different excipients used in hot melt extrusion process were realised with incubation of 1:1 (w/w) binary mixtures of these excipients with bendamustine at 40° C. 75% RH in an open container for one month.

The conditions of data set [2]: mice; cited from earlier work.
Data set [3] is described as follows: Temperature stability studies of bendamustine. It counts as physicochemical. On the procedure:
Temperature stability studies of bendamustine were conducted with treatment of bendamustine at given temperatures for 10 minutes.

Data set [4] can be described thus: Rat studies to determine oral bioavailability of bendamustine. Particulars: male, Sprague-Dawley, in vivo; for AUC(0-inf): read-out: mean AUC0-∞. As for the experimental part: Rat studies were carried out with the extrudate to determine the oral bioavailability of bendamustine. For this purpose 3 mg/kg bendamustine was applied parenterally to 3 animals and samples were taken at 0, 0.083, 0.25, 0.5, 1, 2, 4, 8 hours and analyzed with a validated HPLC/MS method. Furthermore extrudates of the invention were applied orally to 9 rats with a bendamustine concentration of 10.8 mg/kg. Samples were taken at 0, 0.25, 0.5, 1, 2, 4, 6, 8 hours and analyzed with a validated HPLC/MS method

On to `Cn1c(CCCC(=O)O)nc2cc(N(CCCl)CCCl)ccc21` [bendamustine, 4-[5-[Bis(2-chloroethyl)amino]-1-methylbenzimidazol-2-yl]butanoic acid], for which the Total impurities % came out at 0.121% in data set [1] (1:1 (w/w) mixture with Ascorbic acid, 40° C. 75% RH); 0.098% in data set [1] (1:1 (w/w) mixture with Citric acid, 40° C. 75% RH); 0.258% in data set [1] (1:1 (w/w) mixture with Ditert butyl methyl phenol, 40° C. 75% RH); 0.154% in data set [1] (1:1 (w/w) mixture with Eudragit ® EPO, 40° C. 75% RH); 0.091% in data set [1] (1:1 (w/w) mixture with Kollidone VA64, 40° C. 75% RH); 0.326% in data set [1] (1:1 (w/w) mixture with PEG 1000, 40° C. 75% RH). The Total impurities % in data set [1] (1:1 (w/w) mixture with PEG 2000, 40° C. 75% RH) was 0.229%; in data set [1] (1:1 (w/w) mixture with Plasdone K12, 40° C. 75% RH) it was 0.124%; in data set [1] (1:1 (w/w) mixture with Soluplus, 40° C. 75% RH), 0.118%; in data set [1] (1:1 (w/w) mixture with Vit E acetate, 40° C. 75% RH), 0.101%. The Compatibility with excipients entry in data set [1] (with large amounts of PEG 2000, PEG 1000 and Diter butyl methyl phenol, 40° C. 75% RH) was “incompatibility”. The oral bioavailability in data set [2] was 40%. Further, the Assay % came out at 101.75% in data set [3] (70 ° C. for 10 minutes), 99.216% in data set [3] (100 ° C. for 10 minutes) and 97.732% in data set [3] (120 ° C. for 10 minutes). In addition, the “Total Impurity %” value is recorded as 0.7% in data set [3] (70 ° C. for 10 minutes), 0.8% in data set [3] (100 ° C. for 10 minutes) and 1.3% in data set [3] (120 ° C. for 10 minutes). Besides, the bioavailability in data set [4] (iv, 3 mg/kg) was 100%; in data set [4] (po, 10 mg/kg) it was 33%. The AUC(0-inf) in data set [4] (iv, 3 mg/kg) came out at 675 ng·h/mL; in data set [4] (po, 10 mg/kg) it was 742 ng·h/mL.

As a reminder, the bioavailability is the share of a dose that reaches the circulation, judged against a reference dose that is usually intravenous. The low end stands for poor availability, the high end for good availability.
